# Data: ChEMBL document CHEMBL2163286, “1,2,3,4-tetrahydroquinoline-based selective human neuronal nitric oxide synthase (nNOS) inhibitors: lead optimization studies resulting in the identification of N-(1-(2-(methylamino)ethyl)-1,2,3,4-tetrahydroquinolin-6-yl)thiophene-2-carboximidamide as a preclinical development candidate” (J Med Chem, 2012)
# Key:
# [1] = biological target: Voltage-gated inwardly rectifying potassium channel KCNH2 (Homo sapiens, UniProt Q12809); test: Inhibition of human ERG expressed in HEK293 cells at -80 mV holding potential assessed as reduction in tail current amplitude by conventional patch clamp assay; type: cell-based
# Chain of Voltage-gated inwardly rectifying potassium channel KCNH2 (Q12809 whole entry): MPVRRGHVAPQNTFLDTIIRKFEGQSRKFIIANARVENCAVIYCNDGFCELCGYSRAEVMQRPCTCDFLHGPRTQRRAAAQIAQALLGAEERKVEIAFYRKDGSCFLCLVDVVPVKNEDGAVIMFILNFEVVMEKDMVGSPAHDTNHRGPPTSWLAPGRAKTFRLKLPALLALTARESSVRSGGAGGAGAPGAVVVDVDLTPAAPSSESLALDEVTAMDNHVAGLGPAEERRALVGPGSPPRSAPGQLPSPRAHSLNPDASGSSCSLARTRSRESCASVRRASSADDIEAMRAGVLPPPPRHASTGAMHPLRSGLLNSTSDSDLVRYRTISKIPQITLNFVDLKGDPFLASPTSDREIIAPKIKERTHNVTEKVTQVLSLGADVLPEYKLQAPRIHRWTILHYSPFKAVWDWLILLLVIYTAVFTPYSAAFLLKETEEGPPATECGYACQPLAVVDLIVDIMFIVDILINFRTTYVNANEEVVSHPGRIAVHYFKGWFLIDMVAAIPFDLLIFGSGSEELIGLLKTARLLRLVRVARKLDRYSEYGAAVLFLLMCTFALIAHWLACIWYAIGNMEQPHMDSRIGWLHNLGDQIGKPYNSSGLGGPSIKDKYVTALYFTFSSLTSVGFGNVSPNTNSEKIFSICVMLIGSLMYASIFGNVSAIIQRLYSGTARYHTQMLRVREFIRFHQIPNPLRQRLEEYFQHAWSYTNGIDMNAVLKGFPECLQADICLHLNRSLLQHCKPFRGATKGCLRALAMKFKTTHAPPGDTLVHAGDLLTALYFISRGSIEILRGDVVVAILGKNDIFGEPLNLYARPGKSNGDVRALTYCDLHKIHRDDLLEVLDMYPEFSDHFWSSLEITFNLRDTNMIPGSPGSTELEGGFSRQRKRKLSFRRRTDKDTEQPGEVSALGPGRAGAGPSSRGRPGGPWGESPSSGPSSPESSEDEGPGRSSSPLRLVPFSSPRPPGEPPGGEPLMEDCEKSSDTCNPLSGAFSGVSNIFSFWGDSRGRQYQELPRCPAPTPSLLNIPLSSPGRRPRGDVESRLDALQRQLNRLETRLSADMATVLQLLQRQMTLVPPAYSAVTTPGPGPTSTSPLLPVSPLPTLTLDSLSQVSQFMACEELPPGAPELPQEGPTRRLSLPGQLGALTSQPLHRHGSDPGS
# Nitric oxide synthase 1 = Nitric oxide synthase 1 (Homo sapiens, UniProt P29475); test: Inhibition of human nNOS expressed in Sf9 cells assessed as reduction in conversion of [3H]L-arginine to [3H]L-citrulline preincubated for 15 mins by radiometric method
# Chain of Nitric oxide synthase 1 (P29475 whole entry): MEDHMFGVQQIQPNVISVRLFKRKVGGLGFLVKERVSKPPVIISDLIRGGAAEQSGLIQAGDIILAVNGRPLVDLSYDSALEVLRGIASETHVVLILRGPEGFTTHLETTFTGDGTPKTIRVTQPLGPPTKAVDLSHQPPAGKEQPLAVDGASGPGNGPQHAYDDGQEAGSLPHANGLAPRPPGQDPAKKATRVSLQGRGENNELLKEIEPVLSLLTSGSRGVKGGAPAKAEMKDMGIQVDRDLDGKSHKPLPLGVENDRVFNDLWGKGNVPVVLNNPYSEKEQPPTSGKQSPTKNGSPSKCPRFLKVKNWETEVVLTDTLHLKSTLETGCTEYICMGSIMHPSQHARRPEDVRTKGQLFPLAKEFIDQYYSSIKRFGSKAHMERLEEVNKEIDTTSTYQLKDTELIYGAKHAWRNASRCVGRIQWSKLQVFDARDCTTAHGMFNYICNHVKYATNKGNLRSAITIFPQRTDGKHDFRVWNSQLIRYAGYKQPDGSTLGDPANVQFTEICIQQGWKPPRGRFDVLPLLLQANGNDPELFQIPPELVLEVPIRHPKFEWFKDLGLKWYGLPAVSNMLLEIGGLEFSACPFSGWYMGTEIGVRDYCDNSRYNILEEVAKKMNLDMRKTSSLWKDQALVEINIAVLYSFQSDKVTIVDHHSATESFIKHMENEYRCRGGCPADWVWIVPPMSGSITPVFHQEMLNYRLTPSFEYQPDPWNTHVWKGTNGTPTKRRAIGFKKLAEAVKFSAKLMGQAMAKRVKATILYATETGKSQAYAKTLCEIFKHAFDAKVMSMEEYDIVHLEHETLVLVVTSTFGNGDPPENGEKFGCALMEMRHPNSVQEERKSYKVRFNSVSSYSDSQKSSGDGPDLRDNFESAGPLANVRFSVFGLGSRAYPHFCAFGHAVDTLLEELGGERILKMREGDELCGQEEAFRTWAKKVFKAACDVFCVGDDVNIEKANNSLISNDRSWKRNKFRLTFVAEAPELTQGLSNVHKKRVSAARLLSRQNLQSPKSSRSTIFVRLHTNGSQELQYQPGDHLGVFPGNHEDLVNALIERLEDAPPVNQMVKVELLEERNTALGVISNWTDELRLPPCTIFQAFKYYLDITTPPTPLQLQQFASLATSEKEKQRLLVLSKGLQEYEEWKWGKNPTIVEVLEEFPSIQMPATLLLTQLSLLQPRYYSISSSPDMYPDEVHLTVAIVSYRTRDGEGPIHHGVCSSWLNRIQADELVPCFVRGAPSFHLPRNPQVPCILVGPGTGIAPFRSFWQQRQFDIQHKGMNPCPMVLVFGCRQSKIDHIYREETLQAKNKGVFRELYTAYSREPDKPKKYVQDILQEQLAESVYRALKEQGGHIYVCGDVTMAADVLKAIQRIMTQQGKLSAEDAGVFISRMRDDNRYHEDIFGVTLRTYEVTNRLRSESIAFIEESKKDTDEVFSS
# Nitric oxide synthase 3 = biological target: T1, Nitric oxide synthase 3 (Homo sapiens, UniProt P29474); test: Inhibition of human eNOS expressed in Sf9 cells assessed as reduction in conversion of [3H]L-arginine to [3H]L-citrulline preincubated for 15 mins by radiometric method
# T1 sequence (P29474 whole entry): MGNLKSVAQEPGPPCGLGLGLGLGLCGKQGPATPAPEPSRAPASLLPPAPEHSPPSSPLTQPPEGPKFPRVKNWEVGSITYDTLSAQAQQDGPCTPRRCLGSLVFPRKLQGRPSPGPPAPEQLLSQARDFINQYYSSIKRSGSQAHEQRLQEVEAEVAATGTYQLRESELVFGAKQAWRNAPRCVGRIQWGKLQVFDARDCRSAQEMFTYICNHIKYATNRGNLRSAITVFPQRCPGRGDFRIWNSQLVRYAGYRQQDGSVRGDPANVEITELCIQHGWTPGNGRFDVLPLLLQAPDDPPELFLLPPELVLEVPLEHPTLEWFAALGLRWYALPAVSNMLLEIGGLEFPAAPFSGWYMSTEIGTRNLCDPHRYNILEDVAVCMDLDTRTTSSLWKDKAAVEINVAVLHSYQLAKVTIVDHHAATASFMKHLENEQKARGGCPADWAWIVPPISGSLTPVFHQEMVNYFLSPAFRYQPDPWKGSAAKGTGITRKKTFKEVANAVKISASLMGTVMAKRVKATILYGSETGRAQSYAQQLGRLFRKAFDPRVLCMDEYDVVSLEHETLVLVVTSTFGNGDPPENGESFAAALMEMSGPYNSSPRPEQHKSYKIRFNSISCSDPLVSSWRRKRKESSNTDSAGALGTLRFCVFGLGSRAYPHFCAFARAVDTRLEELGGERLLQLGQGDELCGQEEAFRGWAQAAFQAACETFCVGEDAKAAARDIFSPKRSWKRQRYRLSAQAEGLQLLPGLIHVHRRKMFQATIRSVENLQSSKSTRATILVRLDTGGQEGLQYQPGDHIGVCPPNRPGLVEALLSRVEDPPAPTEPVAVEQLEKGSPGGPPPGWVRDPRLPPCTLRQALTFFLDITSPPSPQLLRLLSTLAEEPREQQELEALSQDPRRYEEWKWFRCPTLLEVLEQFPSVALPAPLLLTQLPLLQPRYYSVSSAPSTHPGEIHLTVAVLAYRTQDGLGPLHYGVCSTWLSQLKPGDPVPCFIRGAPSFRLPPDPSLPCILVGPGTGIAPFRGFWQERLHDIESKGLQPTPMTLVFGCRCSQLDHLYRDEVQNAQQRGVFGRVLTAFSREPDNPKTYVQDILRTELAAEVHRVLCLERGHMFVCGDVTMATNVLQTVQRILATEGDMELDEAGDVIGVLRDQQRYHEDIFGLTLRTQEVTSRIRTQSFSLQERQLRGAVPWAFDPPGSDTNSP
# [2] = biological target: Nitric oxide synthase, inducible (Homo sapiens, UniProt P35228); test: Inhibition of human recombinant iNOS expressed in Sf9 cells assessed as reduction in conversion of [3H]L-arginine to [3H]L-citrulline preincubated for 15 mins by radiometric method
# Chain of Nitric oxide synthase, inducible (P35228 whole entry): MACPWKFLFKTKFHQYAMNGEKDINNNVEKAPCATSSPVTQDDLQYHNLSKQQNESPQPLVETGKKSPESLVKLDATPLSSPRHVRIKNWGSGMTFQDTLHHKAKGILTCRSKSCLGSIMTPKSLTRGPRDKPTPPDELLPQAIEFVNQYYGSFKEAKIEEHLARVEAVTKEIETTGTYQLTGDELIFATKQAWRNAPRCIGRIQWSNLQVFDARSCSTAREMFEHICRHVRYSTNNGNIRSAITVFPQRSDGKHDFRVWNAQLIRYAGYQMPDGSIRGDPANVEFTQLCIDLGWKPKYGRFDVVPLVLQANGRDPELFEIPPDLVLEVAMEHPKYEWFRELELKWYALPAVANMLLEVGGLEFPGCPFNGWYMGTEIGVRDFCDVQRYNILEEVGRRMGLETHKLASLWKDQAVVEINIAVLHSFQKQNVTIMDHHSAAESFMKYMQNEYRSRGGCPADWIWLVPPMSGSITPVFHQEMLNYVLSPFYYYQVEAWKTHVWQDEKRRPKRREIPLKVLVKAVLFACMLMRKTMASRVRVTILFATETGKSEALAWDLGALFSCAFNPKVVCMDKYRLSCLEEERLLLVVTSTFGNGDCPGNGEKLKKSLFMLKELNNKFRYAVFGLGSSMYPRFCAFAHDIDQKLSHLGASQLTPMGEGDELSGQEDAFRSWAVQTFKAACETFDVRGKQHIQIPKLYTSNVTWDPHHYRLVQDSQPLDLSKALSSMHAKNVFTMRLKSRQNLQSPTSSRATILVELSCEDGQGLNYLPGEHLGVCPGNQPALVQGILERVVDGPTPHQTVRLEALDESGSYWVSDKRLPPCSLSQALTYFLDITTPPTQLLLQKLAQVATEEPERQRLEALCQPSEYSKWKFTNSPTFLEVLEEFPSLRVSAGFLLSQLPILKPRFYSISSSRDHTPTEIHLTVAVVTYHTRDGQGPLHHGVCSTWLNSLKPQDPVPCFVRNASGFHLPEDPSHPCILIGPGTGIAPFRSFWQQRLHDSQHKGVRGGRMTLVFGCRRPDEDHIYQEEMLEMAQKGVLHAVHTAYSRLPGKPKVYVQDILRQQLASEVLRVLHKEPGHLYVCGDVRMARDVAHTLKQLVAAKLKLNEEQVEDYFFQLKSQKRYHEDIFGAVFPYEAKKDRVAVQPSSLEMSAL
Compound,IC50 [1] [µM],IC50 (Nitric oxide synthase 1) [nM],IC50 (Nitric oxide synthase 3) [µM],IC50 [2] [µM]
CCNCCN1CCCc2cc(NC(=N)c3cccs3)ccc21,> 30,139,46.5,> 100
CN1CCC[C@H]1CCN1CCCc2cc(NC(=N)c3cccs3)ccc21,4.7,,,
N=C(Nc1ccc2c(c1)CCCN2C1CCNC1)c1cccs1 (racemic),> 30,,,
CC(C)NCCN1CCCc2cc(NC(=N)c3cccs3)ccc21,27.5,267,,89.4
N=C(Nc1ccc2c(c1)CCCN2CCNCCO)c1cccs1,> 30,115,32.9,73
CCN(C)CCN1CCCc2cc(NC(=N)c3cccs3)ccc21,4.5,97,,> 100
